The record followed here is ChEMBL document CHEMBL2406949, “Novel chlorinated dibenzofurans isolated from the cellular slime mold, Polysphondylium filamentosum, and their biological activities” (Bioorg Med Chem, 2013).

Calls of active or inactive are those of the source. The rule behind the calls is not given here. Bounds are passed on as bounds.

Data set [1] concerns Dictyostelium discoideum. The experiment in a line: Induction of stalk cell differentiation in Dictyostelium discoideum HM44 after 2 days by phase-contrast microscopy. In kind it is functional, organism-based.
Data set [2] in a line: Cytotoxicity against Drosophila melanogaster S2 cells assessed as cell viability up to 1 uM. The data set is classed as cell-based.
In data set [3] the test system is S2. Put plainly: Inhibition of heat shock-mediated activation of hs-Gal4/UAS-lacZ gene expression in Drosophila melanogaster S2 cells after 12 hrs by beta-galactosidase reporter assay. The data set is classed as functional, cell-based.
The subject of data set [4] is 3T3-L1. Put plainly: Growth inhibition of mouse 3T3L1 cells at 10 uM after 3 days by Alamar blue assay. The settings on record: 3t3-l1, 72 h. In kind it is cell-based.
For data set [5], the system named is S2. The experiment in a line: Inhibition of innate immune response in Drosophila melanogaster S2 cells assessed as reduction in DAP-type peptidoglycans-mediated activation of Dpt-LacZ gene expression at 1 uM after 12 hrs by beta-galactosidase reporter assay. In kind it is functional, cell-based.
The test system of data set [6] is HeLa. Put plainly: Growth inhibition of human HeLa cells at 5 uM after 3 days by Alamar blue assay. The data set is classed as functional, cell-based.
Data set [7] concerns K562. The experiment in a line: Growth inhibition of human K562 cells at 2 uM after 3 days by Alamar blue assay. The data set is classed as functional, cell-based.
Data set [8] is described as follows: Cytotoxicity against Drosophila melanogaster S2 cells assessed as inhibition of beta-galactosidase gene expression. In kind it is cell-based.
Data set [9] relates to Dictyostelium discoideum. The experiment in a line: Induction of stalk cell differentiation in Dictyostelium discoideum HM44 at […] after 2 days by phase-contrast microscopy. The data set is classed as functional, organism-based.
The subject of data set [10] is Dictyostelium discoideum. The experiment in a line: Induction of stalk cell differentiation in Dictyostelium discoideum HM44 at 1 nM after 2 days by phase-contrast microscopy. In kind it is functional.

As to `CCCC(=O)c1c(OC)c(Cl)c2oc3c(Cl)c(OC)c(Cl)c(O)c3c2c1O`, the Activity result in data set [1] is “Dose-dependent effect”; in data set [2], “Non-toxic”; in data set [8], “Non-toxic”. Besides, the inhibition entry in [3] is “Dose-dependent effect”. For the same compound, in data set [4], the “growth inhibition (GI)” value is reported as “Toxic”. Besides, the inhibition entry in data set [5] is “Active”. The “growth inhibition (GI)” value in data set [6] and in [7] was “Active” throughout.
Take `CCCC(=O)c1c(OC)c(Cl)c2oc3c(Cl)c(OC)c(Cl)c(O)c3c2c1OC`: the “growth inhibition (GI)” value in [4] is recorded as “Non-toxic”. Further, the inhibition result in [5] is “inactive”. The “growth inhibition (GI)” value in data set [6] and in [7] was “inactive” each time. Besides, in data set [9], the result was inactive.
Take `CCCCCC(=O)c1c(OC)c(Cl)c2oc3c(Cl)c(OC)c(Cl)c(O)c3c2c1O`: the Activity entry in [2] and in [8] was “Non-toxic” throughout. Also, in data set [3], the inhibition entry was “Dose-dependent effect”. Besides, the “growth inhibition (GI)” value in data set [4] is recorded as “Toxic”. Besides, the inhibition entry in data set [5] is “Active”. Further, the “growth inhibition (GI)” value in [6] and in data set [7] was “Active” in each case. In addition, in data set [9], the outcome was inactive.
In [10], `CCCCCC(=O)c1c(O)c(Cl)c(OC)c(Cl)c1O` displayed an Activity above 80%.
